From article PMC11915811, “Conformational activation and disulfide exchange in HIV-1 Env induce cell-free lytic/fusogenic transformation and enhance infection” (Journal of Virology, 2025)
“Also recorded” adds a separate entry of the source. Where two headings read alike, the source gives them in different places.

Tests used:
JRFL pseudovirus [1] = assay: Cell-free lysis of JRFL pseudovirus, p24 release detected by ELISA; details: 2 h at 37°C; for p24 leakage from JRFL pseudovirus with thiol compound in place of Trx1: 1,000 nM KR13b + 1,000 nM free cysteine or glutathione, mean of three independent experiments; for Lysis of JRFL pseudovirus in conjunction with Trx1 (in words): 1,000 nM compound + serial dilutions of Trx1
gp120 = details: read-out: Kd, gp120 binding affinity, cited from earlier work
JRFL pseudovirus [2] = format: cell-based, HIV-1; details: 1,000 nM Trx1; HOS CD4+ CCR5+ cells; normalized to pseudovirus + PBS
BaL.01 pseudovirus = format: cell-based, HIV-1; details: 1,000 nM Trx1; HOS CD4+ CCR5+ cells; normalized to pseudovirus + PBS
HXB2 pseudovirus = format: cell-based, HIV-1; details: 1,000 nM Trx1; HOS CD4+ CCR5+ cells; normalized to pseudovirus + PBS
VSV pseudovirus = format: cell-based, vesicular stomatitis virus

N[C@@H](CS)C(=O)O [cysteine]
p24 leakage from JRFL pseudovirus with thiol compound in place of Trx1 (JRFL pseudovirus [1]): Neither thiol compound caused leakage of p24 above background

N[C@@H](CCC(=O)N[C@@H](CS)C(=O)NCC(=O)O)C(=O)O [glutathione]
p24 leakage from JRFL pseudovirus with thiol compound in place of Trx1 (JRFL pseudovirus [1]): Neither thiol compound caused leakage of p24 above background

CNCc1ccc2c(c1)C[C@H](CN=C(N)N)[C@H]2NC(=O)C(=O)Nc1ccc(Cl)c(F)c1.O=C(O)C(F)(F)F.O=C(O)C(F)(F)F [BNM-III-170]
Kd (gp120; ITC): 0.047 µM
Lysis of JRFL pseudovirus in conjunction with Trx1 (in words) (JRFL pseudovirus [1]): did cause lysis

COc1ccnc2[nH]cc(C(=O)C(=O)N3CCN(C(=O)c4ccccc4)C[C@H]3C)c12 [BMS-806]
Kd (gp120; SPA (scintillation proximity assay)): 0.0211 ± 0.0019 µM
Lysis of JRFL pseudovirus in conjunction with Trx1 (in words) (JRFL pseudovirus [1]): did not

B1: Trx1: recombinant human thioredoxin-1, purchased from Cayman Chemical (protein)
chain: MVKQIESKTAFQEALDAAGDKLVVVDFSATWCGPCKMIKPFFHSLSEKYSNVIFLEVDVDDCQDVASECEVKCMPTFQFFKKGQKVGEFSGANKEKLEATINELV
Enhancement of pseudovirus infectivity (RLU) by exogenous Trx1 (JRFL pseudovirus [2]): at least doubling its RLU values
p24 release / lysis of JRFL pseudovirus by the component alone (control) (JRFL pseudovirus [1]; serial dilutions of the single component, no partner): no significant p24 release; also recorded: negligible lysis
Effect of preincubating virus with one component on lysis (order of addition) (JRFL pseudovirus [1]; virus preincubated with 1,000 nM of labelled component for 0–30 min, then 1,000 nM of the other (KR13b or Trx1) added, versus no preincubation): significant decrease in lytic effect at 10 min
Enhancement of pseudovirus infectivity (RLU) by exogenous Trx1 (BaL.01 pseudovirus): at least doubling its RLU values
Enhancement of pseudovirus infectivity (RLU) by exogenous Trx1 (HXB2 pseudovirus): at least doubling its RLU values
Enhancement of VSV infection by Trx1 (VSV pseudovirus): 10–40%
